How the values were obtained:
KRas^G12D = molecular target: T1, KRas^G12D (Homo sapiens, UniProt P01116, G12D); assay: KRas binding assay (TR-FRET tracer displacement), KRas G12D
T1 construct: Biotinylated KRas (corresponding to amino acids 1-169, produced at Accelegan Inc.); biotin (biotinylated); purchased Accelegan Inc

KRas^G12R = molecular target: T2, KRas^G12R (Homo sapiens, UniProt P01116, G12R); assay: KRas binding assay (TR-FRET tracer displacement), KRas G12R
T2 construct: Biotinylated KRas (corresponding to amino acids 1-169, produced at Accelegan Inc.); biotin (biotinylated); purchased Accelegan Inc

KRas^G12V = molecular target: T3, KRas^G12V (Homo sapiens, UniProt P01116, G12V); assay: KRas binding assay (TR-FRET tracer displacement), KRas G12V
T3 construct: Biotinylated KRas (corresponding to amino acids 1-169, produced at Accelegan Inc.); biotin (biotinylated); purchased Accelegan Inc

[1] = test system: KRas-mediated phosphorylation of ERK in AsPC-1 cells; assay: Inhibition of KRas-mediated phosphorylation of ERK (Cisbio HTRF pERK), AsPC-1 cells; assay type: cell-based; details: Homo sapiens, ASPC1, AsPC-1 cells; HTRF pERK
In short: (§1)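 Each compound was tested at 10 concentrations, threefold apart with 10 uM the highest, for 3 hrs on 6,000 seeded cells; final DMSO was 0.8% and Trametinib (0.2 uM) served as Min control. Lysed cells were analysed for pERK by HTRF.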

[2] = test system: KRas-mediated phosphorylation of ERK in H727 cells; assay: Inhibition of KRas-mediated phosphorylation of ERK (Cisbio HTRF pERK), H727 cells; assay type: cell-based; details: Homo sapiens, NCI-H727, H727 cells; HTRF pERK
In short: as §1

T3 sequence (P01116 1-169 isoform P01116-2 G12V): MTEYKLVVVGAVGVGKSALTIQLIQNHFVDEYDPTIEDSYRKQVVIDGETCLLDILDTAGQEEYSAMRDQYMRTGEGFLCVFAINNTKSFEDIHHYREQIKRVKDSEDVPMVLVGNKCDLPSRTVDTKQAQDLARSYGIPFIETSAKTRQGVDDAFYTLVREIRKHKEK
T1 sequence (P01116 1-169 isoform P01116-2 G12D): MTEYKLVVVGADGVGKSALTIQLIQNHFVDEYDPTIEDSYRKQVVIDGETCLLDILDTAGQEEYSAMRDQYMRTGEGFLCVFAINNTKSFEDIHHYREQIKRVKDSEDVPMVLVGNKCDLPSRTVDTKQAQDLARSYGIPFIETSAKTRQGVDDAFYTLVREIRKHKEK
T2 sequence (P01116 1-169 isoform P01116-2 G12R): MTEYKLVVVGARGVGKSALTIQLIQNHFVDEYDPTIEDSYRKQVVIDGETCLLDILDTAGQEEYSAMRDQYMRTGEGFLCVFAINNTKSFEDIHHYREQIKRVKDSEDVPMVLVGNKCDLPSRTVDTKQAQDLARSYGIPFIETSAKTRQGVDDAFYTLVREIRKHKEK

Row | IC50 (KRas^G12D) | IC50 (KRas^G12R) | IC50 (KRas^G12V) | IC50 [1] | IC50 [2] | SMILES
1 | 891 nM | 3490 nM | 1290 nM | > 10000 nM | > 10000 nM | CCc1c(F)ccc2cc(O)cc(-c3ncc4c(N5CC6CN(C7COC7)CC6C5)nc(OC[C@@]56CCCN5C[C@H](F)C6)nc4c3F)c12 (stereo partly drawn) [Example 621, 5-ethyl-6-fluoro-4-(8-fluoro-2-(((2R,7aS)-2-fluorohexahydro-1H-pyrrolizin-7a-yl)methoxy)-4-(5-(oxetan-3-yl)hexahydropyrrolo[3,4-c]pyrrol-2(1H)-yl)pyrido[4,3-d]pyrimidin-7-yl)naphthalen-2-ol]
2 | 377 nM | 139 nM | 68 nM | > 10000 nM | > 10000 nM | CCc1c(F)ccc2cc(O)cc(-c3ncc4c(N5C[C@@H]6[C@@H](C(N)=O)NC(=O)[C@@H]6C5)nc(OC[C@@]56CCCN5C[C@H](F)C6)nc4c3F)c12 [Example 622, (3aS,6aR)-5-(7-(8-ethyl-7-fluoro-3-hydroxynaphthalen-1-yl)-8-fluoro-2-(((2R,7aS)-2-fluorotetrahydro-1H-pyrrolizin-7a(5H)-yl)methoxy)pyrido[4,3-d]pyrimidin-4-yl)-3-oxooctahydropyrrolo[3,4-c]pyrrole-1-carboxamide]
3 | 98800 nM | 23600 nM | 43000 nM | > 10000 nM | > 10000 nM | CCc1c(F)ccc2cc(O)cc(-c3ncc4c(N5CCC(C)(C)SC(C)(C)C5)nc(OC[C@@]56CCCN5C[C@H](F)C6)nc4c3F)c12 [Example 626, 5-ethyl-6-fluoro-4-(8-fluoro-2-(((2R,7aS)-2-fluorohexahydro-1H-pyrrolizin-7a-yl)methoxy)-4-(2,2,7,7-tetramethyl-1,4-thiazepan-4-yl)pyrido[4,3-d]pyrimidin-7-yl)naphthalen-2-ol]
4 | 35 nM | 27 nM | 12 nM | > 10000 nM | 4560 nM | CCc1c(F)ccc2cc(O)cc(-c3ncc4c(N5CCCCC(P(C)(C)=O)C5)nc(OC[C@@]56CCCN5C[C@H](F)C6)nc4c3F)c12 (stereo partly drawn) [Example 627, (1-(7-(8-ethyl-7-fluoro-3-hydroxynaphthalen-1-yl)-8-fluoro-2-(((2R,7aS)-2-fluorohexahydro-1H-pyrrolizin-7a-yl)methoxy)pyrido[4,3-d]pyrimidin-4-yl)azepan-3-yl)dimethylphosphine oxide]
5 | 78 nM | 180 nM | 107 nM | 3260 nM | 2810 nM | CCc1c(F)ccc2cc(O)cc(-c3ncc4c(N5CCCC6(CCS6(=O)=O)C5)nc(OC[C@@]56CCCN5C[C@H](F)C6)nc4c3F)c12 (stereo partly drawn) [Example 628, 6-(7-(8-ethyl-7-fluoro-3-hydroxynaphthalen-1-yl)-8-fluoro-2-(((2R,7aS)-2-fluorohexahydro-1H-pyrrolizin-7a-yl)methoxy)pyrido[4,3-d]pyrimidin-4-yl)-1-thia-6-azaspiro[3.5]nonane 1,1-dioxide]
6 | 65 nM | 37 nM | 15 nM | > 10000 nM | > 10000 nM | CCc1c(F)ccc2cc(O)cc(-c3ncc4c(N5CCOCC(P(C)(C)=O)C5)nc(OC[C@@]56CCCN5C[C@H](F)C6)nc4c3F)c12 (stereo partly drawn) [Example 629, (4-(7-(8-ethyl-7-fluoro-3-hydroxynaphthalen-1-yl)-8-fluoro-2-(((2R,7aS)-2-fluorohexahydro-1H-pyrrolizin-7a-yl)methoxy)pyrido[4,3-d]pyrimidin-4-yl)-1,4-oxazepan-6-yl)dimethylphosphine oxide]
7 | 796 nM | 34 nM | 93 nM | > 10000 nM | 4420 nM | CCc1c(F)ccc2cc(O)cc(-c3ncc4c(N[C@@H]5C[C@@H](C)S(=O)(=O)[C@@H](C)C5)nc(OC[C@@]56CCCN5C[C@H](F)C6)nc4c3F)c12 [Example 630, (2R,4s,6S)-4-((7-(8-ethyl-7-fluoro-3-hydroxynaphthalen-1-yl)-8-fluoro-2-(((2R,7aS)-2-fluorohexahydro-1H-pyrrolizin-7a-yl)methoxy)pyrido[4,3-d]pyrimidin-4-yl)amino)-2,6-dimethyltetrahydro-2H-thiopyran 1,1-dioxide]
8 | 9 nM | 33 nM | 12 nM | 3130 nM | 1600 nM | CCc1c(F)ccc2cc(O)cc(-c3ncc4c(N5CCCC(S(N)(=O)=O)CC5)nc(OC[C@@]56CCCN5C[C@H](F)C6)nc4c3F)c12 (stereo partly drawn) [Example 631, 1-(7-(8-ethyl-7-fluoro-3-hydroxynaphthalen-1-yl)-8-fluoro-2-(((2R,7aS)-2-fluorotetrahydro-1H-pyrrolizin-7a(5H)-yl)methoxy)pyrido[4,3-d]pyrimidin-4-yl)azepane-4-sulfonamide]
9 | 2180 nM | 1870 nM | 1200 nM | > 10000 nM | > 10000 nM | CCc1c(F)ccc2cc(O)cc(-c3ncc4c(NS(=O)(=O)C5CCCNCC5)nc(OC[C@@]56CCCN5C[C@H](F)C6)nc4c3F)c12 (stereo partly drawn) [Example 632, N-(7-(8-ethyl-7-fluoro-3-hydroxynaphthalen-1-yl)-8-fluoro-2-(((2R,7aS)-2-fluorotetrahydro-1H-pyrrolizin-7a(5H)-yl)methoxy)pyrido[4,3-d]pyrimidin-4-yl)azepane-4-sulfonamide]
10 | 1640 nM | 766 nM | 454 nM | > 10000 nM | > 10000 nM | CCc1c(F)ccc2cc(O)cc(-c3ncc4c(N5Cc6n[nH]c(C(=O)N(C)C)c6C5)nc(OC[C@@]56CCCN5C[C@H](F)C6)nc4c3F)c12 [Example 635, 5-(7-(8-ethyl-7-fluoro-3-hydroxynaphthalen-1-yl)-8-fluoro-2-(((2R,7aS)-2-fluorotetrahydro-1H-pyrrolizin-7a(5H)-yl)methoxy)pyrido[4,3-d]pyrimidin-4-yl)-N,N-dimethyl-2,4,5,6-tetrahydropyrrolo[3,4-c]pyrazole-3-carboxamide]
11 | 10 nM | < 2 nM | 3 nM | 4190 nM | 1810 nM | CCc1c(F)ccc2cc(O)cc(-c3ncc4c(N5CCO[C@@H](CS(N)(=O)=O)C5)nc(OC[C@@]56CCCN5C[C@H](F)C6)nc4c3F)c12 [Example 636, 1-((R)-4-(7-(8-ethyl-7-fluoro-3-hydroxynaphthalen-1-yl)-8-fluoro-2-(((2R,7aS)-2-fluorotetrahydro-1H-pyrrolizin-7a(5H)-yl)methoxy)pyrido[4,3-d]pyrimidin-4-yl)morpholin-2-yl)methanesulfonamide]
12 | 41 nM | 16 nM | 34 nM | 930 nM | 1270 nM | CCc1c(F)ccc2cc(O)cc(-c3ncc4c(N5CCCC(N6C(=O)CCC6=O)C5)nc(OC[C@@]56CCCN5C[C@H](F)C6)nc4c3F)c12 (stereo partly drawn) [Example 638, 1-(1-(7-(8-ethyl-7-fluoro-3-hydroxynaphthalen-1-yl)-8-fluoro-2-(((2R,7aS)-2-fluorotetrahydro-1H-pyrrolizin-7a(5H)-yl)methoxy)pyrido[4,3-d]pyrimidin-4-yl)piperidin-3-yl)pyrrolidine-2,5-dione]
13 | 13 nM | 2 nM | 2 nM | 1040 nM | 718 nM | CCc1c(F)ccc2cc(O)cc(-c3ncc4c(NCc5cn(C(=O)N(C)C)nc5N)nc(OC[C@@]56CCCN5C[C@H](F)C6)nc4c3F)c12 [Example 639, 3-amino-4-(((7-(8-ethyl-7-fluoro-3-hydroxynaphthalen-1-yl)-8-fluoro-2-(((2R,7aS)-2-fluorohexahydro-1H-pyrrolizin-7a-yl)methoxy)pyrido[4,3-d]pyrimidin-4-yl)amino)methyl)-N,N-dimethyl-1H-pyrazole-1-carboxamide]
14 | 3120 nM | 540 nM | 632 nM | > 10000 nM | > 10000 nM | CCc1c(F)ccc2cc(O)cc(-c3ncc4c(N5C[C@@H]6[C@@H](CC(N)=O)NC(=O)[C@@H]6C5)nc(OC[C@@]56CCCN5C[C@H](F)C6)nc4c3F)c12 [Example 641, 2-((1R,3aS,6aR)-5-(7-(8-ethyl-7-fluoro-3-hydroxynaphthalen-1-yl)-8-fluoro-2-(((2R,7aS)-2-fluorotetrahydro-1H-pyrrolizin-7a(5H)-yl)methoxy)pyrido[4,3-d]pyrimidin-4-yl)-3-oxooctahydropyrrolo[3,4-c]pyrrol-1-yl)acetamide]
15 | 1990 nM | 582 nM | 581 nM | 9340 nM | > 10000 nM | CCc1c(F)ccc2cc(O)cc(-c3ncc4c(N5C[C@@H]6[C@@H](C(F)(F)F)C[C@]6(CO)C5)nc(OC[C@@]56CCCN5C[C@H](F)C6)nc4c3F)c12 [Example 647, 5-ethyl-6-fluoro-4-(8-fluoro-2-(((2R,7aS)-2-fluorohexahydro-1H-pyrrolizin-7a-yl)methoxy)-4-((1R,5R,6S)-1-(hydroxymethyl)-6-(trifluoromethyl)-3-azabicyclo[3.2.0]heptan-3-yl)pyrido[4,3-d]pyrimidin-7-yl)naphthalen-2-ol]

Row | SMILES | IC50 (KRas^G12D) | IC50 (KRas^G12R) | IC50 (KRas^G12V) | IC50 [1] | IC50 [2]
16 | CCc1c(F)ccc2cc(O)cc(-c3ncc4c(N5CC6(CO)CC(C7CCCC7)(C5)C6)nc(OC[C@@]56CCCN5C[C@H](F)C6)nc4c3F)c12 [Example 648, 4-(4-(1-cyclopentyl-5-(hydroxymethyl)-3-azabicyclo[3.1.1]heptan-3-yl)-8-fluoro-2-(((2R,7aS)-2-fluorohexahydro-1H-pyrrolizin-7a-yl)methoxy)pyrido[4,3-d]pyrimidin-7-yl)-5-ethyl-6-fluoronaphthalen-2-ol] | 9120 nM | 7370 nM | 6080 nM | > 10000 nM | > 10000 nM

Source: patent US20260015350A1, “AZAQUINAZOLINE PAN-KRAS INHIBITORS” (Mirati Therapeutics, Inc., priority 2022, published 2026)
